{"source": "patent US8466088B2", "about": "“Herbicidal compositions containing benzoylpyrazole compounds” (Ishihara Sangyo Kaisha, Ltd., priority 2007, dated 2013)", "key": {"velvetleaf": {"tested_on": "velvetleaf", "experiment": "Example 1: pot test, foliar treatment, visually observed growth inhibition of velvetleaf", "assay_type": "in vivo, Abutilon theophrasti MEDIC.", "conditions": "Abutilon theophrasti, foliar, read-out: Growth inhibition rate (%) of velvetleaf, Measured value"}, "crabgrass": {"tested_on": "crabgrass", "experiment": "Example 1: pot test, foliar treatment, visually observed growth inhibition of crabgrass", "assay_type": "in vivo", "conditions": "Digitaria sanguinalis, foliar, read-out: Growth inhibition rate (%) of crabgrass, Measured value"}, "various plants": {"tested_on": "various plants", "experiment": "Example 1: pot test, foliar treatment, visually observed growth inhibition of other sown plants (Tables 5-1 to 5-137)", "assay_type": "in vivo", "conditions": "foliar", "text": "When the herbicidal activity in a case where two active ingredients are combined, is larger than the simple sum of the respective herbicidal activities of the two active ingredients (the expected activity), it is called a synergistic effect. The activity expected by the combination of two active ingredients can be calculated as follows (Colby S. R., “Weed”, vol. 15, p. 20-22, 1967). E=α+β−(α×β+100) where\nα: growth inhibition rate when treated with x (g/ha) of herbicide X,\nβ: growth inhibition rate when treated with y (g/ha) of herbicide Y,\nE: growth inhibition rate expected when treated with x (g/ha) of herbicide X and y (g/ha) of herbicide Y.\nThat is, when the actual growth inhibition rate (measured value) is larger than the growth inhibition rate by the above calculation (calculated value), the activity by the combination can be regarded as showing a synergistic effect.\nUpland field soil was put into a 1/1,000,000 hectare pot, and seeds of various plants were sown. When the respective plants reached predetermined leaf stage, herbicidal compositions in predetermined amounts were diluted with water in an amount corresponding to 300 L/ha and applied for foliar treatment by a small sprayer.\nOn the 14th to 28th day after application, the state of growth of the respective plants was visually observed to determine the growth inhibition rate (measured value) in accordance with the following evaluation standard. Further, in accordance with the above Colby's formula, the growth inhibition rate (calculated value) was calculated. In Tables, with respect to the compound A, Compound Nos. in Table 1 or 3 are described, and with respect to other herbicidal compounds, common names are described."}, "[1]": {"conditions": "3.2 to 4.1 leaf stage, 21st day after application"}, "[2]": {"conditions": "4.0 to 4.4 leaf stage, 22nd day after application"}}, "note": "Read-outs that look alike come from different tables or passages of the source."}
{"compound": "COc1cc(OC)nc(NC(=O)NS(=O)(=O)c2ncccc2C(=O)N(C)C)n1", "note": "[Nicosulfuron]", "values": [{"measurement": "inhibition at 10 g/ha", "setting": "velvetleaf; 2.5 to 3.3 leaf stage, 21st day after application, 10 g/ha", "value": 10, "unit": "%"}, {"measurement": "inhibition at 20 g/ha", "setting": "velvetleaf; 2.5 to 3.3 leaf stage, 21st day after application, 20 g/ha", "value": 20, "unit": "%"}, {"measurement": "inhibition at 30 g/ha", "setting": "velvetleaf; 2.5 to 3.3 leaf stage, 21st day after application, 30 g/ha", "value": 20, "unit": "%"}, {"measurement": "inhibition at 80 g/ha", "setting": "velvetleaf; 2.8 to 3.6 leaf stage, 24th day after application, 80 g/ha", "value": 60, "unit": "%"}, {"measurement": "inhibition at 15 g/ha", "setting": "velvetleaf; 3.0 to 3.5 leaf stage, 21st day after application", "value": 45, "unit": "%"}, {"measurement": "inhibition at 15 g/ha", "setting": "velvetleaf; 3.0 to 3.8 leaf stage, 28th day after application", "value": 10, "unit": "%"}, {"measurement": "inhibition at 50 g/ha", "setting": "velvetleaf; 3.3 to 4.3 leaf stage, 20th day after application, 50 g/ha", "value": 50, "unit": "%"}, {"measurement": "inhibition at 30 g/ha", "setting": "crabgrass; 3.5 to 4.2 leaf stage, 20th day after application, 30 g/ha", "value": 92, "unit": "%"}, {"measurement": "inhibition at 15 g/ha", "setting": "crabgrass; 3.8 to 4.4 leaf stage, 21st day after application", "value": 45, "unit": "%"}, {"measurement": "inhibition at 15 g/ha", "setting": "crabgrass; 3.8 to 5.2 leaf stage, 21st day after application", "value": 40, "unit": "%"}, {"measurement": "inhibition at 15 g/ha", "setting": "crabgrass; 4.3 to 4.5 leaf stage, 20th day after application", "value": 88, "unit": "%"}, {"measurement": "inhibition at 7 g/ha", "setting": "various plants; prickly sida 2.1 to 3.1 leaf stage, 20th day after application, 7 g/ha, read-out: Growth inhibition rate (%) of prickly sida, Measured value", "value": 0, "unit": "%"}, {"measurement": "inhibition at 20 g/ha", "setting": "various plants; prickly sida 2.1 to 3.1 leaf stage, 20th day after application, 20 g/ha, read-out: Growth inhibition rate (%) of prickly sida, Measured value", "value": 0, "unit": "%"}, {"measurement": "inhibition at 30 g/ha", "setting": "various plants; prickly sida 2.1 to 3.1 leaf stage, 20th day after application, 30 g/ha, read-out: Growth inhibition rate (%) of prickly sida, Measured value", "value": 10, "unit": "%"}, {"measurement": "inhibition at 60 g/ha", "setting": "various plants; prickly sida 2.1 to 3.1 leaf stage, 20th day after application, 60 g/ha, read-out: Growth inhibition rate (%) of prickly sida, Measured value", "value": 55, "unit": "%"}]}
{"compound": "CCNc1nc(Cl)nc(NC(C)C)n1", "note": "[Atrazine, atrazine, reference compound]", "values": [{"measurement": "inhibition at 125 g/ha", "setting": "velvetleaf; 2.4 to 3.2 leaf stage, on the 22nd day after application, active ingredient amount 125 g/ha", "value": 10, "unit": "%"}, {"measurement": "inhibition at 1000 g/ha", "setting": "velvetleaf; 2.8 to 3.6 leaf stage, 24th day after application, 1000 g/ha", "value": 15, "unit": "%"}, {"measurement": "inhibition at 1500 g/ha", "setting": "velvetleaf; 2.8 to 3.6 leaf stage, 24th day after application, 1500 g/ha", "value": 15, "unit": "%"}, {"measurement": "inhibition at 2000 g/ha", "setting": "velvetleaf; 2.8 to 3.6 leaf stage, 24th day after application, 2000 g/ha", "value": 25, "unit": "%"}, {"measurement": "inhibition at 125 g/ha", "setting": "velvetleaf; 3.0 to 3.5 leaf stage, 20th day after application, 125 g/ha", "value": 0, "unit": "%"}, {"measurement": "inhibition at 125 g/ha", "setting": "velvetleaf; 3.0 to 3.5 leaf stage, 21st day after application, 125 g/ha", "value": 10, "unit": "%"}, {"measurement": "inhibition at 250 g/ha", "setting": "velvetleaf; 3.0 to 3.5 leaf stage, 21st day after application, 250 g/ha", "value": 20, "unit": "%"}, {"measurement": "inhibition at 150 g/ha", "setting": "velvetleaf; 3.0 to 3.8 leaf stage, 15th day after application", "value": 0, "unit": "%"}, {"measurement": "inhibition at 175 g/ha", "setting": "velvetleaf; [1]", "value": 3, "unit": "%"}, {"measurement": "inhibition at 375 g/ha", "setting": "velvetleaf; [1]", "value": 5, "unit": "%"}, {"measurement": "inhibition at 150 g/ha", "setting": "velvetleaf; 3.2 to 5.0 leaf stage, 21st day after application", "value": 60, "unit": "%"}, {"measurement": "inhibition at 150 g/ha", "setting": "velvetleaf; 3.5 to 4.3 leaf stage, 21st day after application", "value": 0, "unit": "%"}, {"measurement": "inhibition at 175 g/ha", "setting": "velvetleaf; [2]", "value": 20, "unit": "%"}, {"measurement": "inhibition at 375 g/ha", "setting": "velvetleaf; [2]", "value": 25, "unit": "%"}, {"measurement": "inhibition at 175 g/ha", "setting": "crabgrass; 2.7 to 3.6 leaf stage, 21st day after application, 175 g/ha", "value": 0, "unit": "%"}, {"measurement": "inhibition at 375 g/ha", "setting": "crabgrass; 2.7 to 3.6 leaf stage, 21st day after application", "value": 20, "unit": "%"}, {"measurement": "inhibition at 375 g/ha", "setting": "crabgrass; 3.1 to 4.0 leaf stage, 22nd day after application", "value": 0, "unit": "%"}, {"measurement": "inhibition at 125 g/ha", "setting": "crabgrass; 3.2 to 4.3 leaf stage, on the 22nd day after application, active ingredient amount 125 g/ha", "value": 0, "unit": "%"}, {"measurement": "inhibition at 250 g/ha", "setting": "crabgrass; 3.2 to 4.3 leaf stage, on the 22nd day after application, active ingredient amount 250 g/ha", "value": 0, "unit": "%"}, {"measurement": "inhibition at 150 g/ha", "setting": "crabgrass; 3.8 to 4.4 leaf stage, 21st day after application, 150 g/ha", "value": 0, "unit": "%"}, {"measurement": "inhibition at 125 g/ha", "setting": "crabgrass; 4.0 to 4.5 leaf stage, 21st day after application, 125 g/ha", "value": 10, "unit": "%"}, {"measurement": "inhibition at 250 g/ha", "setting": "crabgrass; 4.0 to 4.5 leaf stage, 21st day after application, 250 g/ha", "value": 10, "unit": "%"}, {"measurement": "inhibition at 125 g/ha", "setting": "crabgrass; 4.3 to 4.5 leaf stage, 20th day after application, 125 g/ha", "value": 0, "unit": "%"}, {"measurement": "inhibition at 250 g/ha", "setting": "crabgrass; 4.3 to 4.5 leaf stage, 20th day after application, 250 g/ha", "value": 0, "unit": "%"}, {"measurement": "inhibition at 31 g/ha", "setting": "various plants; Ipomoea, ivyleaf morningglory 1.5 to 2.1 leaf stage, 23rd day after application, 31 g/ha, read-out: Growth inhibition rate (%) of ivyleaf morningglory, Measured value", "value": 0, "unit": "%"}, {"measurement": "inhibition at 90 g/ha", "setting": "various plants; Ipomoea, ivyleaf morningglory 1.5 to 2.1 leaf stage, 23rd day after application, 90 g/ha, read-out: Growth inhibition rate (%) of ivyleaf morningglory, Measured value", "value": 0, "unit": "%"}, {"measurement": "inhibition at 180 g/ha", "setting": "various plants; Ipomoea, ivyleaf morningglory 1.5 to 2.1 leaf stage, 23rd day after application, 180 g/ha, read-out: Growth inhibition rate (%) of ivyleaf morningglory, Measured value", "value": 0, "unit": "%"}, {"measurement": "inhibition at 500 g/ha", "setting": "various plants; Ipomoea, ivyleaf morningglory 1.5 to 2.1 leaf stage, 23rd day after application, 500 g/ha, read-out: Growth inhibition rate (%) of ivyleaf morningglory, Measured value", "value": 83, "unit": "%"}]}
{"compound": "CCOCN(C(=O)CCl)c1c(C)cccc1CC", "note": "[Acetochlor]", "values": [{"measurement": "inhibition at 150 g/ha", "setting": "velvetleaf; 2.0 to 2.5 leaf stage, 21st day after application", "value": 0, "unit": "%"}, {"measurement": "inhibition at 150 g/ha", "setting": "velvetleaf; 3.3 to 4.2 leaf stage, 22nd day after application", "value": 0, "unit": "%"}, {"measurement": "inhibition at 300 g/ha", "setting": "velvetleaf; 3.3 to 4.2 leaf stage, 22nd day after application, 300 g/ha", "value": 0, "unit": "%"}, {"measurement": "inhibition at 400 g/ha", "setting": "crabgrass; 3.3 to 4.2 leaf stage, 24th day after application, 400 g/ha", "value": 0, "unit": "%"}, {"measurement": "inhibition at 600 g/ha", "setting": "crabgrass; 3.3 to 4.2 leaf stage, 24th day after application, 600 g/ha", "value": 0, "unit": "%"}, {"measurement": "inhibition at 800 g/ha", "setting": "crabgrass; 3.3 to 4.2 leaf stage, 24th day after application, 800 g/ha", "value": 0, "unit": "%"}, {"measurement": "inhibition at 1600 g/ha", "setting": "crabgrass; 3.3 to 4.2 leaf stage, 24th day after application, 1600 g/ha", "value": 0, "unit": "%"}, {"measurement": "inhibition at 100 g/ha", "setting": "various plants; Ipomoea, ivyleaf morningglory 1.5 to 2.1 leaf stage, 14th day after application, 100 g/ha, read-out: Growth inhibition rate (%) of ivyleaf morningglory, Measured value", "value": 0, "unit": "%"}, {"measurement": "inhibition at 150 g/ha", "setting": "various plants; Ipomoea, ivyleaf morningglory 1.5 to 2.1 leaf stage, 14th day after application, 150 g/ha, read-out: Growth inhibition rate (%) of ivyleaf morningglory, Measured value", "value": 0, "unit": "%"}, {"measurement": "inhibition at 200 g/ha", "setting": "various plants; Ipomoea, ivyleaf morningglory 1.5 to 2.1 leaf stage, 14th day after application, 200 g/ha, read-out: Growth inhibition rate (%) of ivyleaf morningglory, Measured value", "value": 0, "unit": "%"}]}
